Results reported in the supplement of paper PMC10307832.

Columns and labels:
Experiment in all cases: relative viability (nuclei count vs DMSO), 5 days (fraction); higher = more cells survive
IPA-3 + Luminespib = compound: C1=CC=C2C(=C1)C=CC(=C2SSC3=C(C=CC4=CC=CC=C43)O)O [IPA-3] + CCNC(=O)c1noc(-c2cc(C(C)C)c(O)cc2O)c1-c1ccc(CN2CCOCC2)cc1 [Luminespib] (partner 0.01 µM)
Method in brief: (§1)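 Lung cancer cell lines in 1536-well plates were dosed by pin tool the day after seeding, either with one drug alone or with a fixed anchor-drug dose plus five library-drug doses (not always all listed) in √10 steps. After 5 days, cells were fixed and their nuclei stained in one step (final 0.05% Triton X-100, 1% formaldehyde, 1 ug/ml Hoechst), then counted on 4× images. Relative viability is the nuclei count in treated wells divided by that in vehicle wells. Values are medians of duplicate plates.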

Doramapimod + Decitabine = compound: Cc1ccc(-n2nc(C(C)(C)C)cc2NC(=O)Nc2ccc(OCCN3CCOCC3)c3ccccc23)cc1 [Doramapimod] + Nc1ncn([C@H]2C[C@H](O)[C@@H](CO)O2)c(=O)n1 [Decitabine] (partner 2 µM)
Method in brief: as §1

RAF265 + Bortezomib = compound: Cn1c(Nc2ccc(C(F)(F)F)cc2)nc2cc(Oc3ccnc(-c4ncc(C(F)(F)F)[nH]4)c3)ccc21 [RAF265] + CC(C)C[C@H](NC(=O)[C@H](Cc1ccccc1)NC(=O)c1cnccn1)B(O)O [Bortezomib] (partner 0.002 µM)
Method in brief: as §1

Doramapimod + Vorinostat = compound: Cc1ccc(-n2nc(C(C)(C)C)cc2NC(=O)Nc2ccc(OCCN3CCOCC3)c3ccccc23)cc1 [Doramapimod] + O=C(CCCCCCC(=O)Nc1ccccc1)NO [Vorinostat] (partner 1 µM)
Method in brief: as §1

| Cell Line | relative viability (IPA-3 + Luminespib; first compound 0.2 µM) | relative viability (IPA-3 + Luminespib; first compound 0.6325 µM) | relative viability (IPA-3 + Luminespib; first compound 2 µM) | relative viability (IPA-3 + Luminespib; first compound 6.325 µM) | relative viability (IPA-3 + Luminespib; first compound 20 µM) | relative viability (Doramapimod + Decitabine; first compound 0.02 µM) | relative viability (Doramapimod + Decitabine; first compound 0.06325 µM) | relative viability (Doramapimod + Decitabine; first compound 0.2 µM) | relative viability (Doramapimod + Decitabine; first compound 0.6325 µM) | relative viability (Doramapimod + Decitabine; first compound 2 µM) | relative viability (RAF265 + Bortezomib; first compound 0.01 µM) | relative viability (RAF265 + Bortezomib; first compound 0.03162 µM) | relative viability (RAF265 + Bortezomib; first compound 0.1 µM) | relative viability (RAF265 + Bortezomib; first compound 0.3162 µM) | relative viability (RAF265 + Bortezomib; first compound 1 µM) | relative viability (Doramapimod + Vorinostat; first compound 0.02 µM) | relative viability (Doramapimod + Vorinostat; first compound 0.06325 µM) | relative viability (Doramapimod + Vorinostat; first compound 0.2 µM) | relative viability (Doramapimod + Vorinostat; first compound 0.6325 µM) | relative viability (Doramapimod + Vorinostat; first compound 2 µM) |
| --- | --- | --- | --- | --- | --- | --- | --- | --- | --- | --- | --- | --- | --- | --- | --- | --- | --- | --- | --- | --- |
| NCI-H1437 | 1.15 | 0.951 | 1.1 | 1.03 | 1.24 | 0.541 | 0.554 | 0.647 | 0.624 | 0.598 | 0.541 | 0.528 | 0.419 | 0.56 | 0.343 | 0.789 | 0.912 | 0.836 | 0.855 | 0.688 |
| NCI-H1650 | 0.193 | 0.179 | 0.218 | 0.208 | 0.191 | 0.412 | 0.409 | 0.515 | 0.409 | 0.283 | 0.224 | 0.222 | 0.224 | 0.207 | 0.216 | 0.571 | 0.586 | 0.553 | 0.729 | 0.528 |
| NCI-H1651 | 1.04 | 0.768 | 0.853 | 0.959 | 1.02 | 0.632 | 0.678 | 0.608 | 0.569 | 0.608 | 0.981 | 0.978 | 0.974 | 0.897 | 0.932 | 0.514 | 0.604 | 0.602 | 0.623 | 0.552 |
| NCI-H1666 | 1.06 | 0.972 | 1.04 | 1.16 | 1.34 | 0.768 | 0.792 | 0.83 | 0.659 | 0.755 | 1.09 | 0.809 | 0.935 | 0.977 | 0.595 | 1.05 | 0.986 | 1.03 | 1.14 | 0.944 |
| NCI-H1734 | 0.191 | 0.224 | 0.185 | 0.216 | 0.194 | 0.476 | 0.47 | 0.489 | 0.51 | 0.363 | 0.937 | 0.724 | 0.696 | 0.7 | 0.469 | 0.705 | 0.739 | 0.665 | 0.94 | 0.621 |
| NCI-H1755 | 0.447 | 0.421 | 0.416 | 0.479 | 0.597 | 0.778 | 0.753 | 0.711 | 0.666 | 0.706 | 1.01 | 0.921 | 0.892 | 0.842 | 0.536 | 0.798 | 0.748 | 0.619 | 0.768 | 0.687 |
| NCI-H1915 | 0.968 | 0.534 | 0.775 | 0.713 | 0.926 | 0.24 | 0.256 | 0.256 | 0.261 | 0.255 | 0.96 | 0.95 | 0.887 | 0.816 | 0.417 | 0.52 | 0.571 | 0.551 | 0.563 | 0.442 |
| NCI-H1975 | 0.236 | 0.189 | 0.213 | 0.19 | 0.365 | 0.384 | 0.451 | 0.335 | 0.386 | 0.301 | 0.46 | 0.342 | 0.334 | 0.322 | 0.229 | 0.733 | 0.724 | 0.699 | 0.758 | 0.636 |
| NCI-H1993 | 1.05 | 1.32 | 0.852 | 0.478 | 0.844 | 0.537 | 0.578 | 0.511 | 0.668 | 0.53 | 1.06 | 0.941 | 1.09 | 1.01 | 0.795 | 0.835 | 0.723 | 0.819 | 1.18 | 0.834 |
| NCI-H2009 | 1.06 | 1.04 | 1.07 | 0.941 | 1.06 | 0.35 | 0.408 | 0.45 | 0.384 | 0.329 | 1.05 | 0.981 | 0.905 | 0.899 | 0.657 | 0.765 | 0.745 | 0.762 | 0.92 | 0.777 |
| NCI-H2023 | 0.93 | 0.617 | 0.674 | 0.712 | 0.693 | 0.233 | 0.211 | 0.263 | 0.218 | 0.216 | 1.07 | 1.08 | 1.07 | 0.786 | 0.794 | 0.718 | 0.664 | 0.556 | 0.607 | 0.519 |
| NCI-H2085 | 0.475 | 0.411 | 0.502 | 0.432 | 0.5 | 0.612 | 0.526 | 0.563 | 0.584 | 0.56 | 1.1 | 0.985 | 1.14 | 1.1 | 0.987 | 0.827 | 0.821 | 0.782 | 0.872 | 0.722 |
| NCI-H2087 | 0.169 | 0.14 | 0.183 | 0.197 | 0.167 | 0.286 | 0.206 | 0.277 | 0.232 | 0.201 | 0.772 | 0.718 | 0.804 | 0.621 | 0.714 | 0.932 | 0.764 | 0.668 | 0.718 | 0.669 |
| NCI-H2126 | 0.998 | 0.819 | 0.921 | 0.902 | 1.1 | 0.561 | 0.57 | 0.543 | 0.614 | 0.55 | 1.05 | 1.1 | 1.13 | 1.14 | 0.926 | 0.792 | 0.765 | 0.763 | 0.671 | 0.671 |
| NCI-H2347 | 0.525 | 0.0323 | 0.357 | 0.269 | 0.45 | 0.671 | 0.604 | 0.626 | 0.656 | 0.634 | 0.801 | 1.03 | 1.09 | 0.809 | 0.573 | 0.652 | 0.555 | 0.569 | 0.644 | 0.538 |
| NCI-H2405 | 0.722 | 0.599 | 0.688 | 0.666 | 0.762 | 0.758 | 0.713 | 0.703 | 0.861 | 0.685 | 0.985 | 0.898 | 0.995 | 0.975 | 0.422 | 1.1 | 1.12 | 1.22 | 0.958 | 1.02 |
